Legend:
[1] = system: rats; test: Open field activity; format: in vivo, rat; settings: 5.6 mg/kg i.p., 30 min before; p < 0.05 vs vehicle (14,484 ± 1686 cm)
Method: Rats were habituated in a reversed light cycle room in home cages for at least 1 week and acclimated to the testing room for 1 h prior to dosing. TRPM8 antagonist (10, 30, or 100 mg/kg) or vehicle (5 % Tween 80 in OraPlus®) was injected 2 h before placing an animal in the open-field apparatus. Open-field activity was measured using a system that counts interruptions of a set of photobeams for the course of 60 min (Kinder Scientific, Poway, CA). To begin a session, animals were removed from the home cage and placed individually into an independent Plexiglas box (41 cm L × 41 cm W × 38 cm H) surrounded by a frame consisting of 32 photocells (16Y and 16X) that track the movement of the animal. Photobeam breaks were used as an indication of activity and were measured as the following parameters per minute: basic movements (beam breaks), distance traveled (cm), time spent (s), and number of repetitive beam breaks (i.e., stereotypic movement). Chlordiazepoxide, which consistently elicits a decrease in open field activity, was used as a positive control. Chlordiazepoxide was formulated in saline at 5.6 mg/kg i.p. and dosed 30 min before the start of the open field assay.

[2] = system: SNL rats; test: SNL-induced tactile allodynia (von Frey, up-down method); format: in vivo, rat; settings: 200 mg/kg p.o.; p < 0.05 vs vehicle (4.4 ± 1.2 g)
Method: SNL surgery was performed using aseptic surgical techniques and a stereomicroscope (Kim and Chung [1992]). Spinal nerve injury was caused by ligating the left L5 and L6 spinal nerves, with special care to avoid damage to the L4 spinal nerve or surrounding area. More specifically, under gaseous anesthesia with a mixture of O2 and isoflurane (3 % for induction and 2 % for maintenance), skin was excised and the longissimus lumborum muscle, part of articular processes (L4-S1), and the fascia above L6 spinal nerve were carefully removed. […]
Behavioral testing Two weeks post surgery, mechanical sensitivity was measured by determining the median 50 % foot withdrawal threshold for von Frey filaments using the up-down method (Chaplan et al. [1994]). […] To avoid possible reflex responses, only abrupt withdrawal of the foot accompanied by pain indicative behaviors (namely paw flinching, shaking, or licking for more than 2 s) was recorded as a response. […]
In vivo IC50 and IC90 estimates using WDS model data were determined by fitting a sigmoidal dose-response curve to individual animal number of WDS versus resulting plasma concentration. Behavioral and electrophysiological data are expressed as mean ± standard error of the mean (S.E.M.). Results were analyzed using one-way analysis of variance (ANOVA) with Dunnett’s multiple-comparisons post-hoc test for significance relative to vehicle. […]

[3] = system: cold hypersensitivity after CFA or peripheral nerve injury models; settings: ref Knowlton et al. [2011]; cited from earlier work
[4] = system: TRPM8-mediated icilin-induced wet-dog shakes in rats; test: Icilin-induced wet-dog shake (WDS) model; format: in vivo, rat
Method: The TRPM8 antagonist (1, 3, or 10 mg/kg) or vehicle control (5 % Tween 80 in OraPlus®) was administered p.o. 90 min prior to administration of icilin (0.5 mg/kg, 1 ml/kg, i.p., 100 % PEG 400). […] Rats were viewed through transparent Plexiglas® observation cylinders that were placed on a custom, opaque, plastic apparatus such that one rat could not view another rat.
In vivo IC50 and IC90 estimates using WDS model data were determined by fitting a sigmoidal dose-response curve to individual animal number of WDS versus resulting plasma concentration. Behavioral and electrophysiological data are expressed as mean ± standard error of the mean (S.E.M.). Results were analyzed using one-way analysis of variance (ANOVA) with Dunnett’s multiple-comparisons post-hoc test for significance relative to vehicle. […] Actual gram values are plotted on a logarithmic scale Y-axis of the figures for convenience. Statistical calculations and graphs were made using GraphPad Prism 5.01 (GraphPad Software Inc, San Diego, CA). Percent responders to menthol stimulation in the ex vivo skin-nerve preparation were compared under vehicle and antagonist conditions through the use of Fisher’s exact test. Responses of C fibers to increasing mechanical forces under vehicle or antagonist conditions were compared using a two-way ANOVA with a Bonferonni post-hoc analysis.

For `CNC1=Nc2ccc(Cl)cc2C(c2ccccc2)=[N+]([O-])C1` [chlordiazepoxide, Chlordiazepoxide, reference compound], the “total distance traveled, open field (positive control)” value [1] was 9423 ± 745 cm.

For `NCC1(CC(=O)O)CCCCC1` [gabapentin, reference compound], the “tactile threshold (von Frey), SNL model (positive control)” value [2] was 12.4 ± 1.2 g.

In the case of `COc1cc(CN(CCN)C(=O)OC(C)c2ccccc2)ccc1OCc1ccccc1` (centres unmarked) [PBMC], the “effect on cold hypersensitivity after CFA or peripheral nerve injury” value [3] is listed as “attenuated cold hypersensitivity”.

With `O=C1NC(c2cccc([N+](=O)[O-])c2)=CCN1c1ccccc1O` [icilin, reference compound] the “ED80 for induction of wet-dog shakes” value ([4]; icilin i.p. 0.3, 0.5, 0.75, 1 mg/kg) was “less than 0.5 mg/kg” and the “ED90 for induction of wet-dog shakes” value ([4]; icilin i.p. 0.3–1.0 mg/kg dose-response, interval 0.28–0.75, data not shown) was 0.46 mg/kg.

From PMC4359714 (Naunyn-Schmiedeberg's Archives of Pharmacology, 2015)
